Assay results published in patent US11793746B2, “Intense skin hydration systems and methods” (priority 2020, dated 2023).

Columns and labels:
[1] = system: PGE2 synthesis by 3T3 fibroblasts; assay: Inhibition of PGE2 synthesis by 3T3 fibroblasts (ELISA); type: cell-based; details: for [PGE2]: 24 h
From the text: This Example establishes the anti-inflammatory potential of GC-100 by measuring the inhibition of PGE2 synthesis by 3T3 fibroblasts in cell culture.
The cells are nourished in a medium enriched with arachidonic acid which leads to increased secretion of eicosanoids into the medium.
The formation of prostaglandin PGE2 will be followed as a marker of eicosanoid synthesis, because it is a stable molecule secreted preferentially by 3T3 fibroblasts. The anti-inflammatory potential of an active ingredient may then be investigated by following the decrease in secretion of PGE2 in the culture medium.
Quantification of PGE2 will be achieved using an enzyme-linked immunosorbant assay (ELISA). In principle, the PGE2 expressed by the cells in culture medium will compete with enzyme-linked PGE2 for available antibody, which is a constant. The concentration of enzyme-linked PGE2 is also constant and quantified prior to testing. The enzyme linked to PGE2 prior to testing is acetylcholinesterase. Since the quantity of PGE2 expressed by 3T3 cells in culture will vary based on the concentration of GC-100 present, the amount of antibody available to bind to the enzyme-linked PGE2 versus that produced by the 3T3 cells assumes an inverse relationship that is dependent on Brownian motion. After eliminating unreacted PGE2 through washing, substrate is added that binds to the enzyme-PGE2-antibody complex to generate a yellow color that is strongly evident using spectrophotometer set at 412 nm. The amount of light transmitted through the test sample is directly proportional to the intensity of the color change and, consequently, to the concentration of PGE2-enzyme-antibody complex.
Create a mother solution (solution #1) containing complete DMEM, alcohol, and 2×10^5 3T3 fibroblasts for plating onto 25 cm^2 culture dishes. Using a compounding dilution technique, prepare the following solutions, using 5 mL of media per plate: • Solution #2: Solution #1 plus arachidonic acid (10^−3% P/V) • Solution #3: Solution #2 plus indomethacin (0,1,10^−3% P/V) • Solution #4: Solution #2 plus GC-100 0.5% • Solution #5: Solution #2 plus GC-100 1.0%
Incubate all preparations for 24 hours at 37° C. Recover the supernatant media, and if needed deep freeze it at −20° C. before quantification. Count the number of surviving cells using a coulter counter. Establish a calibration curve of the quantity of PGE2. Quantify the supernatant media using an enzyme-linked immunosorbant assay kit specific for PGE2 (Cayman), using a Dynotech microplate reader (MR500) with a filter set at 412 nm. Calculate the % inhibition of PGE2 synthesis. The results are shown in Table 4 and FIG. 10, which is a graph showing mean suppression of PGE2 concentration in test media comprising indomethacin or GC-100.

[2] = Radial forearm free-flap, trophic effect; type: in vivo
[3] = system: hepatocytes; assay: Cellular O2 consumption measured with an oxygraph; type: cell-based; details: 3% GC-100
From the text: Increased cellular respiration may be equated with more efficient use of cellular reserves (e.g., polysaccharides & triglycerides) and improved elimination of metabolic waste. The end result of enhanced cellular respiration is cellular regeneration and restoration of the organ system being evaluated. The activation of cellular respiration can be evaluated using an oxygraph. Since the oxygraph electrode response is directly proportional to the concentration of dissolved O2 in the test media, a measure of cellular O2 consumption can be calculated to yield information on changes in cellular respiration. […] FIG. 4 is a graph showing hepatocyte oxygen consumption in the presence of GC-100 at various concentrations.

[4] = system: human diploid fibroblasts; assay: Fibroblast proliferation (MTT) in suboptimal nutritional medium; type: cell-based; details: for Cells/well (×10^3): control 15
From the text: This Example quantifies the biostimulating activity of GC-100 on human diploid fibroblasts in a suboptimal nutritional environment.
Cellular proliferation, or mitotic activity, will be assessed using an MTT assay. MTT added to the microtiter wells is metabolized by succinate dehydrogenase of the citric acid cycle. Since the metabolism of MTT is dependent on mitochondrial activity, the amount of metabolite produced can be correlated with the number of viable cells present per well. The metabolite concentration is measured via spectrophotometry, with the absorption value converted to an absolute number that describes cellular growth based on standardized curves. The results are shown in Table 2 and FIG. 5, which is a graph showing fibroblast proliferation in a suboptimal nutritional environment.

[5] = system: photodamaged human skin; assay: Pilot open label study on photoaged skin: epidermal thickness by high frequency ultrasound; type: in vivo; details: for % change (epidermal thickness, ultrasound): range over panelists
Method: A pilot open label study was conducted to establish the efficacy of GC-100 on photoaged skin in a clinical setting.
Primary endpoints for this study were as follows: • 1. Epidermal skin thickness was measured using high frequency ultrasound. • 2. Panelists regard for their overall appearance and any changes noted in the appearance of their wrinkles, lentigines, facial acne and pore size were used in qualitative analysis. In addition, panelists were asked to comment on irritation, novel rashes, and other side effects during the study period.
An open label, six week pilot study to examiner the regenerative effect of GC-100 was performed on 15 women with mild to moderate dermatoheliosis as defined by clinical examination. Exclusion criteria selected against patients with a history of retinoic acid use, dermabrasion, or chemical peel application within 6 months prior to study onset. However, all patients had used one or more of these products previously. After appropriate informed consent was obtained, baseline measurements of epidermal thickness using high frequency untrasonography (20 MHz and above) were collected using skin at the infraorbital prominence. Three measurements were taken at each site and averaged to yield a result. GC-100 was applied to the face and neck according to the following schedule: • Weekly: GC-100 applied in mask vehicle • Twice daily: GC-100 applied through lotion vehicle
The patient population was divided into two groups, where Group I was evaluated after 24 hours of product application, and Group II was evaluated at the conclusion of weeks 2, 4 and 6. A panelist questionnaire was completed during each evaluation session.

[6] = DMEM + AA + 0.5% GC-100, column A
[7] = DMEM + AA + 0.5% GC-100, column B
[8] = DMEM + AA + 0.5% GC-100, column C
[9] = DMEM + AA + 1% GC-100, column A
[10] = DMEM + AA + 1% GC-100, column B
[11] = DMEM + AA + 1% GC-100, column C
[12] = Group I, evaluated after 24 hours of product application
[13] = Group II, evaluated at weeks 2, 4 and 6

For H-Lys-Pro-NH2 [GC-100], the “% change of PGE2 vs DMEM + AA, MEAN” value ([1]; DMEM + AA + 0.5% GC-100) was −13%, the “% change of PGE2 vs DMEM + AA” value [1, 6] was −10.5% and the “[PGE2]” value [1, 6] was 2.81 pg/mL. For the same substance, the “% change of PGE2 vs DMEM + AA” value [1, 7] was −19.7%, the “[PGE2]” value [1, 7] was 2.41 pg/mL and the “% change of PGE2 vs DMEM + AA” value [1, 8] was −8.7%. For the same substance, the “[PGE2]” value [1, 8] was 2.62 pg/mL, the “% change of PGE2 vs DMEM + AA, MEAN” value ([1]; DMEM + AA + 1% GC-100) was −23.9% and the “% change of PGE2 vs DMEM + AA” value [1, 9] was −23.9%. For the same substance, the “[PGE2]” value [1, 9] was 2.39 pg/mL, the “% change of PGE2 vs DMEM + AA” value [1, 10] was −27.7% and the “[PGE2]” value [1, 10] was 2.17 pg/mL. For the same substance, the “% change of PGE2 vs DMEM + AA” value [1, 11] was −20.2%, the “[PGE2]” value [1, 11] was 2.29 pg/mL and the “mean decrease of PGE2 expression below untreated control” value ([1]; GC-100 1%) was 24%. The “acceleration of generalized healing” value ([2]; free flap full-thickness skin graft model, skin overlying a muscle belly) was 50%, the “physical examination of treated flap skin” value ([2]; superior half of flap treated three times over 9 days from postoperative day 14) was “noticeably thicker, smoother and less erythematous” and the “average increase in O2 consumption” value [3] was 282%±30. The “% increase O2 consumption” value ([3]; 57 mg cells) was 310%, the “Final consumption, ha” value ([3]; 57 mg cells) was 1.259 nm O2/min/mg cells and the “% increase O2 consumption” value ([3]; 58 mg cells) was 260%. For the same substance, the “Final consumption, ha” value ([3]; 58 mg cells) was 1.003 nm O2/min/mg cells, the “% increase O2 consumption” value ([3]; 60 mg cells) was 240% and the “Final consumption, ha” value ([3]; 60 mg cells) was 0.865 nm O2/min/mg cells. The “% increase O2 consumption” value ([3]; 63 mg cells) was 280%, the “Final consumption, ha” value ([3]; 63 mg cells) was 0.879 nm O2/min/mg cells and the “% increase O2 consumption” value ([3]; 64 mg cells) was 320%. The “Final consumption, ha” value ([3]; 64 mg cells) was 0.954 nm O2/min/mg cells, the “Cells/well (×10^3)” value ([4]; 0.1% GC-100) was 17 ×10^3 cells/well and the “Cells/well (×10^3)” value ([4]; 0.5% GC-100) was 20 ×10^3 cells/well. For the same substance, the “Cells/well (×10^3)” value ([4]; 1.0% GC-100) was 21 ×10^3 cells/well, the “Cells/well (×10^3)” value ([4]; 5% GC-100) was 28 ×10^3 cells/well and the “Cells/well (×10^3)” value ([4]; 10% GC-100) was 24 ×10^3 cells/well. The “Cumulative fibroblast proliferation (mitosis)” value ([4]; in the presence of GC-100) was 83%, the “Mean % (change in epidermal thickness)” value [5, 12] was 8.5% and the “% change (epidermal thickness, ultrasound)” value [5, 12] was 3.4-19.2%. For the same substance, the “Mean % (change in epidermal thickness)” value [5, 13] was 7.95%, the “% change (epidermal thickness, ultrasound)” value [5, 13] was 2.9-14% and the “stratum corneum compaction spongiosis, granular cell layer thickness and epidermal thickness vs baseline” value ([5]; both treatment groups, high frequency ultrasound) was “significant increase over baseline”. For the same substance, the “average increase in epidermal thickness” value ([5]; six weeks after application) was 8%.
